# Source: patent US20210236442A1, “METHODS FOR DELAYING OCCURRENCE OF NEW-ONSET TYPE 2 DIABETES AND FOR SLOWING PROGRESSION OF AND TREATING TYPE 2 DIABETES” (Dalcor Pharma UK Ltd., Leatherhead, Zug Branch, priority 2018, published 2021)
# How the values were obtained:
# Format in all cases: in vivo, human
# [1] = tested on: patients enrolled in the dal-OUTCOMES trial; experiment: Cox proportional hazards regression of SNP rs1967309 for association with cardiovascular events per treatment arm (dal-OUTCOMES); conditions: for Event (cardiovascular events): 600 mg dalcetrapib arm; for HR (rs1967309, cardiovascular events) / β genetic (rs1967309, cardiovascular events): dalcetrapib arm
# Text: Inclusion Criteria: Patients 45 years of age or older who provided written informed consent were eligible to participate if they had been hospitalized for an acute coronary syndrome characterized by elevated cardiac biomarkers, with symptoms of acute myocardial ischemia, ischemic electrocardiographic abnormalities that were new or presumed to be new, or loss of viable myocardium on imaging. Patients without elevated cardiac biomarkers were eligible to participate if symptoms of acute myocardial ischemia were accompanied by electrocardiographic changes that were new or presumed to be new and by additional evidence of obstructive coronary disease. […] However, no specific statin agent or dose was specified, and patients were not excluded if their LDL cholesterol level remained above 100 mg per deciliter. There were no exclusions on the basis of patients' HDL cholesterol level. […] The patients began a single-blind placebo-based run-in period of approximately 4 to 6 weeks to allow for patients to stabilize and for completion of any planned revascularization procedures. At the end of the run-in period, patients in stable condition were randomized in a 1:1 ratio to 600 mg of dalcetrapib or placebo on top of evidence-based medical care for acute cardiovascular syndrome (“ACS”). The descriptive statistics and analyses were performed using SAS 9.4 software.
# Cox proportional hazards regression of single nucleotide polymorphism (“SNP”) rs1967309 was conducted for association with cardiovascular events in each treatment arm and in patients with a diagnosis of diabetic at baseline in the dal-OUTCOMES trial and in non-diabetic patients separately without controlling for any covariate, as shown in Table 4. Cox proportional hazards regression of SNP rs1967309 was conducted for association with cardiovascular events in each treatment arm and in diabetic and non-diabetic patients separately controlling for age and sex, as shown in Table 5.
# [2] = tested on: patients of the dal-OUTCOMES trial; experiment: GLM of dalcetrapib treatment arm for whole-blood HbA1c at 6, 12 and 24 months
# Method: The effect of dalcetrapib on whole-blood HbA1c levels irrespective of genotype and the impact of dalcetrapib on risk of new onset diabetes were retrospectively assessed in patients of the dal-OUTCOMES trial. The descriptive statistics and analyses were performed using SAS 9.4 software. Diabetes at baseline was defined based on at least one of the following patient criteria: (1) diagnosis of diabetics at baseline in the dal-OUTCOMES trial; (2) whole-blood HbA1c level>=6.5% at baseline; (3) fasting glucose level>=7.0 mmol/L at baseline; and (4) use of diabetes medication at or before baseline. GLM results of the dalcetrapib treatment arm for whole-blood HbA1c at 6,12, and 24 months (“M06”, “M12” and “M24”, respectively) were obtained.
# [3] = tested on: patients of the dal-OUTCOMES trial; experiment: Cox proportional hazards regression of dalcetrapib treatment arm for association with new onset diabetes
# Method: The effect of dalcetrapib on whole-blood HbA1c levels irrespective of genotype and the impact of dalcetrapib on risk of new onset diabetes were retrospectively assessed in patients of the dal-OUTCOMES trial. The descriptive statistics and analyses were performed using SAS 9.4 software. Diabetes at baseline was defined based on at least one of the following patient criteria: (1) diagnosis of diabetics at baseline in the dal-OUTCOMES trial; (2) whole-blood HbA1c level>=6.5% at baseline; (3) fasting glucose level>=7.0 mmol/L at baseline; and (4) use of diabetes medication at or before baseline. New onset diabetes was defined in non-diabetic patients at baseline based on at least one of the following patient criteria: (1) adverse event (AE) preferred terms “type 2 diabetes mellitus” OR “diabetes mellitus” from the AE file that occurred after randomization; (2) use of diabetes medication that was initiated after randomization; (2) at least one whole-blood HbA1c measurement of >=6.5% after randomization; and (4) at least one fasting glucose measurement of >=126 mg/dl or >=7.0 mmol/L after randomization. Cox proportional hazards regression of dalcetrapib treatment arm for association with new onset diabetes was assessed. There were 598 (14%) new onset diabetes cases in the 4173 non-diabetics at baseline.
# [4] = tested on: uncontrolled diabetic patients of the dal-OUTCOMES trial; experiment: Effect of dalcetrapib on whole-blood HbA1c in uncontrolled diabetics
# Method: The effect of dalcetrapib in uncontrolled diabetics defined once as HbA1c>7% at baseline or once as >7.5% at baseline was retrospectively assessed in patients of the dal-OUTCOMES trial. The descriptive statistics and analyses were performed using SAS 9.4 software. Two populations of uncontrolled diabetics at baseline were defined: patients having a whole-blood HbA1c level of >7 (n=437) and patients having a whole-blood HbA1c level of >7.5 (n=280).
# [5] = diabetic patients, controlling for age and sex
# [6] = diabetic patients, no covariate
# [7] = non-diabetic patients, controlling for age and sex
# [8] = non-diabetic patients, no covariate
smiles,measurement,setting,value
CCC(CC)CC1(C(=O)Nc2ccccc2SC(=O)C(C)C)CCCCC1 [dalcetrapib],SNP rs1967309 as predictor of cardiovascular events in the dalcetrapib arm,"[1]; diabetic and non-diabetic patients, with and without covariates, significance level of 5%",predictive of cardiovascular events
same,Event (cardiovascular events),"[1]; diabetic patients, Table 4",134
same,Event (cardiovascular events),"[1]; diabetic patients, Table 5",134
same,"HR (rs1967309, cardiovascular events)",[1]; [5],0.6631
same,"β genetic (rs1967309, cardiovascular events)",[1]; [5],−0.4108
same,"HR (rs1967309, cardiovascular events)",[1]; [6],0.6597
same,"β genetic (rs1967309, cardiovascular events)",[1]; [6],−0.4159
same,Event (cardiovascular events),"[1]; non-diabetic patients, Table 4",255
same,Event (cardiovascular events),"[1]; non-diabetic patients, Table 5",255
same,"HR (rs1967309, cardiovascular events)",[1]; [7],0.6366
same,"β genetic (rs1967309, cardiovascular events)",[1]; [7],−0.4516
same,"HR (rs1967309, cardiovascular events)",[1]; [8],0.6400
same,"β genetic (rs1967309, cardiovascular events)",[1]; [8],−0.4462
same,"β dalcetrapib, Ln(HbA1c)","[2]; All, HBA1C_M06, Table 12, adjustment not stated",−0.0137
same,"β dalcetrapib, Ln(HbA1c)","[2]; All, HBA1C_M06, first block, adjusted for baseline HbA1c",−0.0143
same,"β dalcetrapib, Ln(HbA1c)","[2]; All, HBA1C_M12, Table 12, adjustment not stated",−0.0152
same,"β dalcetrapib, Ln(HbA1c)","[2]; All, HBA1C_M12, first block, adjusted for baseline HbA1c",−0.0160
same,"β dalcetrapib, Ln(HbA1c)","[2]; All, HBA1C_M24, Table 12, adjustment not stated",−0.0170
same,"β dalcetrapib, Ln(HbA1c)","[2]; All, HBA1C_M24, first block, adjusted for baseline HbA1c",−0.0176
same,association of dalcetrapib treatment arm with whole-blood HbA1c levels,"[2]; M06, M12, M24, all patients combined and each rs1967309 genotype, with and without age and sex",associated with decrease in whole-blood HbA1c levels
same,"β dalcetrapib, Ln(HbA1c)","[2]; genotype = AA, HBA1C_M06, Table 12, adjustment not stated",−0.0192
same,"β dalcetrapib, Ln(HbA1c)","[2]; genotype = AA, HBA1C_M06, first block, adjusted for baseline HbA1c",−0.0196
same,"β dalcetrapib, Ln(HbA1c)","[2]; genotype = AA, HBA1C_M12, Table 12, adjustment not stated",−0.0112
same,"β dalcetrapib, Ln(HbA1c)","[2]; genotype = AA, HBA1C_M12, first block, adjusted for baseline HbA1c",−0.0116
same,"β dalcetrapib, Ln(HbA1c)","[2]; genotype = AA, HBA1C_M24, Table 12, adjustment not stated",−0.0172
same,"β dalcetrapib, Ln(HbA1c)","[2]; genotype = AA, HBA1C_M24, first block, adjusted for baseline HbA1c",−0.0171
same,"β dalcetrapib, Ln(HbA1c)","[2]; genotype = AG, HBA1C_M06, Table 12, adjustment not stated",−0.0113
same,"β dalcetrapib, Ln(HbA1c)","[2]; genotype = AG, HBA1C_M06, first block, adjusted for baseline HbA1c",−0.0123
same,"β dalcetrapib, Ln(HbA1c)","[2]; genotype = AG, HBA1C_M12, Table 12, adjustment not stated",−0.0143
same,"β dalcetrapib, Ln(HbA1c)","[2]; genotype = AG, HBA1C_M12, first block, adjusted for baseline HbA1c",−0.0156
same,"β dalcetrapib, Ln(HbA1c)","[2]; genotype = AG, HBA1C_M24, Table 12, adjustment not stated",−0.0139
same,"β dalcetrapib, Ln(HbA1c)","[2]; genotype = AG, HBA1C_M24, first block, adjusted for baseline HbA1c",−0.0153
same,"β dalcetrapib, Ln(HbA1c)","[2]; genotype = GG, HBA1C_M06, Table 12, adjustment not stated",−0.0145
same,"β dalcetrapib, Ln(HbA1c)","[2]; genotype = GG, HBA1C_M06, first block, adjusted for baseline HbA1c",−0.0145
same,"β dalcetrapib, Ln(HbA1c)","[2]; genotype = GG, HBA1C_M12, Table 12, adjustment not stated",−0.0185
same,"β dalcetrapib, Ln(HbA1c)","[2]; genotype = GG, HBA1C_M12, first block, adjusted for baseline HbA1c",−0.0186
same,"β dalcetrapib, Ln(HbA1c)","[2]; genotype = GG, HBA1C_M24, Table 12, adjustment not stated",−0.0214
same,"β dalcetrapib, Ln(HbA1c)","[2]; genotype = GG, HBA1C_M24, first block, adjusted for baseline HbA1c",−0.0210
same,"β dalcetrapib, Ln(HbA1c)","[2]; genotype_group = AA + AG, HBA1C_M06, Table 12, adjustment not stated",−0.0133
same,"β dalcetrapib, Ln(HbA1c)","[2]; genotype_group = AA + AG, HBA1C_M06, first block, adjusted for baseline HbA1c",−0.0141
same,"β dalcetrapib, Ln(HbA1c)","[2]; genotype_group = AA + AG, HBA1C_M12, Table 12, adjustment not stated",−0.0135
same,"β dalcetrapib, Ln(HbA1c)","[2]; genotype_group = AA + AG, HBA1C_M12, first block, adjusted for baseline HbA1c",−0.0146
same,"β dalcetrapib, Ln(HbA1c)","[2]; genotype_group = AA + AG, HBA1C_M24, Table 12, adjustment not stated",−0.0147
same,"β dalcetrapib, Ln(HbA1c)","[2]; genotype_group = AA + AG, HBA1C_M24, first block, adjusted for baseline HbA1c",−0.0157
same,"β dalcetrapib, Ln(HbA1c)","[2]; genotype_group = GG, HBA1C_M06, Table 12, adjustment not stated",−0.0145
same,"β dalcetrapib, Ln(HbA1c)","[2]; genotype_group = GG, HBA1C_M06, first block, adjusted for baseline HbA1c",−0.0145
same,"β dalcetrapib, Ln(HbA1c)","[2]; genotype_group = GG, HBA1C_M12, Table 12, adjustment not stated",−0.0185
same,"β dalcetrapib, Ln(HbA1c)","[2]; genotype_group = GG, HBA1C_M12, first block, adjusted for baseline HbA1c",−0.0186
same,"β dalcetrapib, Ln(HbA1c)","[2]; genotype_group = GG, HBA1C_M24, Table 12, adjustment not stated",−0.0214
same,"β dalcetrapib, Ln(HbA1c)","[2]; genotype_group = GG, HBA1C_M24, first block, adjusted for baseline HbA1c",−0.0210
same,mean ln(HbA1c) in the dalcetrapib treatment arm,"[2]; versus placebo arm, adjusting for baseline HbA1c",lower than in the placebo arm
same,effect of dalcetrapib on new onset diabetes,[3]; non-diabetic patients at baseline,trend for a protective effect
same,association of new onset diabetes with dalcetrapib treatment arm,"[3]; non-diabetic patients at baseline, all combined and each genotype, P<0.05, with and without covariates",not found to be significantly associated
same,association with treatment arm,"[3]; patients with diabetes at baseline and AA genotype, with and without covariates, patients with events n=27",significant association with treatment arm
same,association of treatment arm (dalcetrapib versus placebo) with whole-blood HbA1c at M06,"[4]; HbA1c >7 at baseline, genotype rs1967309/AA, without adjustment for covariates, significance level 5%",associated with a decrease in whole-blood HbA1c
same,"repeated measures analysis, natural logarithm of HbA1C at 6, 12 and 24 months","[4]; uncontrolled diabetic patients, mixed regression models",confirmed by repeated measures analysis
same,mean ln(HbA1c) in the dalcetrapib treatment arm,"[4]; uncontrolled diabetics, versus placebo arm",lower than in the placebo arm
